Measurements taken from patent US5914351A, “Anti-viral aromatic hydrazones” (Uniroyal Chemical Company, Inc., priority 1997, dated 1999).
≈ marks a conversion by molar mass, not a printed value.

What was measured:
Assay type in all cases: cell-based
HIV-1 IIIB = experiment: Inhibition of HIV-1 induced syncytium formation in CEM cells, HIV-1 IIIB (wild type); settings: Human immunodeficiency virus 1, CCRF-CEM, 96 h, day 4 post infection
Excerpt: (§1) CEM cells were obtained from the American Tissue Cell Culture Collection (Rockville, Md.). HIV-1 (IIIB) was originally obtained from the culture supernatant of persistently HIV-1-infected H9 cells and was provided by R. C. Gallo and M. Popovic (National Cancer Institute, National Institutes of Health, Bethesda, Md.). The selection and characterization of the HIV-1 RT mutant strains were done as follows: HIV-1/100-Ile ("100-Ile") was selected for resistance against TIBO R82150 as described in Balzarini et al, Virology 192: 246-253 (1993); HIV-1/103-Asn ("103-Asn") was selected for resistance against TIBO R82913 as described in Balzarini et al, Virology 192: 246-253 (1993); HIV-1/106-Ala ("106-Ala") was selected for resistance against nevirapine as described in Balzarini et al, J. Virol. 67: 5353-5359 (1993); HIV-1/138-Lys ("138-Lys") was selected for resistance against TSAO-m^3T as described in Balzarini et al, Virology 192: 246-253 (1993) and Balzarini et al, Proc. Nat. Acad. Sci. U.S.A. 90: 6952-6956 (1993); HIV-1/181-Cys ("181-Cys") was selected for resistance against pyridinone L-697,661 as described in Balzarini et al, Virology 192: 246-253 (1993); and HIV-1/188-His ("188-His") was selected for resistance against HEPT as described in Balzarini et al, Mol. Pharmocol. 44: 694-701 (1993). 188-His was then further converted to HIV-1/188-Leu ("188-Leu") upon further passage in cell culture in the absence of the HEPT.
(§2) CEM cells were suspended at ≈300,000 cells per mL of culture medium and infected with approximately 100 CCID50 (CCID50 being the 50% cell culture infective dose) of HIV-1 (IIIB) or one of the HIV-1 RT mutant strains described above. Then 100 μL of the infected cell suspensions was added to 200 μL microtiter plate wells containing 100 μL of appropriate serial (5-fold) dilutions of the test compounds. The inhibitory effect of the test compounds on HIV-1 induced syncytium formation in CEM cells was examined microscopically on day 4 post infection. The 50% effective concentration (EC50) was defined as the test compound concentration that inhibits syncytium formation in the HIV-1 infected cell cultures by 50%.

HIV-1/138-Lys = experiment: Inhibition of HIV-1 induced syncytium formation in CEM cells, RT mutant 138-Lys; settings: Human immunodeficiency virus 1, CCRF-CEM, 96 h, read-out: EC50 138-Lys
Excerpt: as §1, §2

HIV-1/103-Asn = experiment: Inhibition of HIV-1 induced syncytium formation in CEM cells, RT mutant 103-Asn; settings: Human immunodeficiency virus 1, CCRF-CEM, 96 h, read-out: EC50 103-Asn
Excerpt: as §1, with “188-His was then further converted to HIV-1/188-Leu ("188-Leu") upon further passage in cell culture in the absence of the HEPT.” left out

HIV-1/181-Cys = experiment: Inhibition of HIV-1 induced syncytium formation in CEM cells, RT mutant 181-Cys; settings: Human immunodeficiency virus 1, CCRF-CEM, 96 h, read-out: EC50 181-Cys
Excerpt: as §1
as §2, with “The 50% effective concentration (EC50) was defined as the test compound concentration that inhibits syncytium formation in the HIV-1 infected cell cultures by 50%.” left out

HIV-1/100-Ile = experiment: Inhibition of HIV-1 induced syncytium formation in CEM cells, RT mutant 100-Ile; settings: Human immunodeficiency virus 1, CCRF-CEM, 96 h, read-out: EC50 100-Ile
Excerpt: as §1, with “188-His was then further converted to HIV-1/188-Leu ("188-Leu") upon further passage in cell culture in the absence of the HEPT.” left out

HIV-1/106-Ala = experiment: Inhibition of HIV-1 induced syncytium formation in CEM cells, RT mutant 106-Ala; settings: Human immunodeficiency virus 1, CCRF-CEM, 96 h, read-out: EC50 106-Ala
Excerpt: as §1
as §2, with “The 50% effective concentration (EC50) was defined as the test compound concentration that inhibits syncytium formation in the HIV-1 infected cell cultures by 50%.” left out

HIV-1/188-Leu = experiment: Inhibition of HIV-1 induced syncytium formation in CEM cells, RT mutant 188-Leu; settings: Human immunodeficiency virus 1, CCRF-CEM, 96 h, read-out: EC50 188-Leu
Excerpt: as §1, with “188-His was then further converted to HIV-1/188-Leu ("188-Leu") upon further passage in cell culture in the absence of the HEPT.” left out

How did the EC50 (HIV-1 IIIB) turn out when `Cc1occc1C(=O)Nc1ccc(Cl)c(C=NN(C)C)c1` [Compound 1] was run?
Its EC50 is 0.225 µg/mL (≈ 0.736 µM).

And the EC50 (HIV-1/138-Lys)?
The EC50 was 1.6 µg/mL (≈ 5.23 µM).

Which EC50 (HIV-1 IIIB) does the source give for `Cc1occc1C(=S)Nc1ccc(Cl)c(C=NN(C)C)c1` [Compound 2] here?
Its EC50 is 0.008 µg/mL (≈ 0.0249 µM).

What about the EC50 (HIV-1/103-Asn) of the same compound?
The EC50 was 0.65 µg/mL (≈ 2.02 µM).

And the EC50 (HIV-1/181-Cys)?
The EC50 was 0.13 µg/mL (≈ 0.404 µM).

What about the EC50 (HIV-1/138-Lys) of the same compound?
Its EC50 is 0.04 µg/mL (≈ 0.124 µM).

And the EC50 (HIV-1/100-Ile)?
Its EC50 is 0.14 µg/mL (≈ 0.435 µM).

What about the EC50 (HIV-1/106-Ala) of the same compound?
The EC50 was 0.065 µg/mL (≈ 0.202 µM).

`Cc1occc1C(=O)Nc1ccc(Cl)c(C=NN2CCCC2)c1` [Compound 3] was tested. Which EC50 (HIV-1 IIIB) did it give?
The EC50 was 0.325 µg/mL (≈ 0.979 µM).

What about the EC50 (HIV-1/181-Cys) of the same compound?
Its EC50 is 1 µg/mL (≈ 3.01 µM).

And the EC50 (HIV-1/138-Lys)?
Its EC50 is 1.6 µg/mL (≈ 4.82 µM).

What about the EC50 (HIV-1/106-Ala) of the same compound?
The EC50 was 1.3 µg/mL (≈ 3.92 µM).

What does the source list for `Cc1occc1C(=S)Nc1ccc(Cl)c(C=NN2CCCC2)c1` [Compound 4]?
EC50 (HIV-1 IIIB): 0.015 µg/mL (≈ 0.0431 µM); EC50 (HIV-1/103-Asn): 0.34 µg/mL (≈ 0.977 µM); EC50 (HIV-1/181-Cys): 0.1 µg/mL (≈ 0.287 µM); EC50 (HIV-1/188-Leu): 4.5 µg/mL (≈ 12.9 µM); EC50 (HIV-1/138-Lys): 0.08 µg/mL (≈ 0.23 µM); EC50 (HIV-1/100-Ile): 0.33 µg/mL (≈ 0.949 µM); EC50 (HIV-1/106-Ala): 0.1 µg/mL (≈ 0.287 µM)

For `Cc1occc1C(=S)Nc1ccc(Cl)c(C=NN2CCOCC2)c1` [Compound 5, N-[4-chloro-3-[(4-morpholinylimino)methyl]phenyl]-2-methyl-3-furancarbothioamide], which EC50 (HIV-1 IIIB) is on record?
The EC50 was 0.13 µg/mL (≈ 0.357 µM).
